# Experimental data published in patent US9790169B2, “IDO inhibitors” (BRISTOL-MYERS SQUIBB COMPANY, priority 2015, dated 2017).
# pIC50: −log10 of the molar value.
# Target: human IDO1 (Homo sapiens, UniProt P14902)
# Experiment: Assessment of human IDO-1 inhibitory activity in HEK cells (human IDO1/HEK293 cells, kynurenine read-out with Ehrlich reagent, absorbance 490 nm)
# Format: cell-based
# Set-up: expressed in transfected cells
# Settings: HEK Human IDO-1 cellular assay
# In short: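 Kynurenine output from stably IDO1-transfected HEK293 cells (10,000/well, phenol red-free RPMI, 10% FBS) after 20 h compound exposure at 37 °C. The reaction was stopped with 0.2% TCA and heated 30 min at 50 °C, then the supernatant was mixed with Ehrlich reagent and read at 490 nm. IC50 was set against DMSO and a 500 nM reference standard as 0 and 100% inhibition.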
# human IDO1, sequence (P14902 whole entry): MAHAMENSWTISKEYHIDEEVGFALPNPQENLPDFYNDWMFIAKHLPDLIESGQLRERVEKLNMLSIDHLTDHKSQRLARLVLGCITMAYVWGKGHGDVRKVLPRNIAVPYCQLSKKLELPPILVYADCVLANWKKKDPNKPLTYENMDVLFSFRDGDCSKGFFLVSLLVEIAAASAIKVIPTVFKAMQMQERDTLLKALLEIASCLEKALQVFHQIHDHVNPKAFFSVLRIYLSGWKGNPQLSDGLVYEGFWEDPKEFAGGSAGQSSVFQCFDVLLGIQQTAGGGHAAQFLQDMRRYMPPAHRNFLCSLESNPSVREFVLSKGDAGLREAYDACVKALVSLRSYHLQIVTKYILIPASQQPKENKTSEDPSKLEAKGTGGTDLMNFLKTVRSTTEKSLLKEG
row,Compound,pIC50
1,"CCN(c1ccc([C@@H](COC)CC(=O)O)cc1NC(=O)Nc1cc(C)no1)C1CCOCC1 (single isomer, unassigned) [Example 429]",< 7.30
2,"CCc1ccc(Nc2cc(C(CC)CC(=O)O)cc(F)c2N(CC(C)C)CC(C)C)cc1 (single isomer, unassigned) [Example 96, 3-(4-(diisobutylamino)-3-((4-ethylphenyl)amino)-5-fluorophenyl)pentanoic acid]",> 7.30
3,"CC(C)(CC(=O)O)c1ccc(N2CCC[C@H]2C(C)(C)O)c(Nc2ccc(F)cc2)c1 [Example 807, (S)-3-(3-((4-Fluorophenyl)amino)-4-(2-(2-hydroxypropan-2-yl)pyrrolidin-1-yl)phenyl)-3-methylbutanoic acid]",< 7.30
4,"CCC(CC(=O)O)c1ccc(N2CCC[C@H]2C(C)(C)O)c(Nc2ccc(C#N)cc2)c1 (single isomer, unassigned) [Example 825]",> 7.30
5,"CCOc1ccc(Nc2cc(C(CC)CC(=O)O)cc(F)c2N(CC(C)C)CC(C)C)cc1 (single isomer, unassigned) [Example 97, 3-(4-(diisobutylamino)-3-((4-ethoxyphenyl)amino)-5-fluorophenyl)pentanoic acid]",> 7.30
6,"COCC(CC(=O)O)c1ccc(N(CC(C)C)CC(C)C)c(NC(=O)Nc2ccc(Cl)cc2F)c1 (racemic) [Example 994, (+/−)-3-(3-(3-(4-Chloro-2-fluorophenyl)ureido)-4-(diisobutylamino)phenyl)-4-methoxybutanoic acid]",> 8.30
7,"CCOc1ccc(NC(=O)Nc2cc(C(C)CC(=O)O)ccc2N(CC(C)C)C2CCOCC2)cc1 (single isomer, unassigned) [Example 963, 3-(3-(3-(4-ethoxyphenyl)ureido)-4-(isobutyl(tetrahydro-2H-pyran-4-yl)amino)phenyl)butanoic acid]",< 7.30
8,"COCC(CC(=O)O)c1ccc(N(CC(C)C)C2CCCCC2)c(NC(=O)Nc2ccc(C)cc2)c1 (single isomer, unassigned) [989-1]",> 8.30
9,"CCC(CC(=O)O)c1ccc(N2CCC[C@H]2C(C)(C)F)c(Nc2ccc3c(c2)OC(F)(F)O3)c1 (single isomer, unassigned) [Example 796]",< 7.30
10,"CCOc1ncc(Nc2cc(C(CC)CC(=O)O)ccc2N2CCC[C@H]2C(C)(C)O)cn1 (single isomer, unassigned) [Example 839]",< 7.30
11,"CCOc1ccc(NC(=O)Nc2cc(C(COC)CC(=O)O)cc(F)c2N(CC(C)C)CC(C)C)c(F)c1 (single isomer, unassigned) [Example 1191, 3-(4-(Diisobutylamino)-3-(3-(4-ethoxy-2-fluorophenyl)ureido)-5-fluorophenyl)-4-methoxybutanoic acid]",> 8.30
12,"CCOc1ncc(Nc2cc([C@H](CC)CC(=O)O)ccc2N(CC(C)(C)O)C2CCOCC2)cn1 (single isomer, unassigned) [Example 202]",< 7.30
13,"CCOc1ncc(Nc2cc(C(CC)CC(=O)O)ccc2N(CC)C2CCCOC2)cn1 (single isomer, unassigned) [Example 69, 3-(3-((2-ethoxypyrimidin-5-yl)amino)-4-(ethyl(tetrahydro-2H-pyran-3-yl)amino)phenyl)pentanoic acid]",> 8.30
14,"CCOc1ccc(Nc2cc([C@@H](CC)CC(=O)O)ccc2N(CC)C2CCOCC2)cc1 (single isomer, unassigned) [Example 474]",> 8.30
15,"CCN(c1ccc(C(C)(C)CC(=O)O)cc1Nc1ccc2c(c1)OC(F)(F)O2)C1CCOCC1 [Example 161, 3-(3-((2,2-difluorobenzo[d][1,3]dioxol-5-yl)amino)-4-(ethyl (tetrahydro-2H-pyran-4-yl)amino)phenyl)-3-methylbutanoic acid]",> 8.30
16,"CC[C@@H](CC(=O)O)c1ccc(N(CC)C2CCOCC2)c(Nc2ccc3nncn3c2)c1 (single isomer, unassigned) [Example 471]",< 7.30
17,"CC[C@@H](CC(=O)O)c1ccc(N(CC)C2CCOCC2)c(Nc2ccc(S(=O)(=O)CC)cc2)c1 (single isomer, unassigned) [Example 485]",> 7.30
18,"Cc1nc2ccc(Nc3cc(C(CC(=O)O)c4ccccc4)cc(F)c3N(CC(C)C)CC(C)C)cc2s1 (single isomer, unassigned) [Example 130, 3-(4-(Diisobutylamino)-3-fluoro-5-((2-methylbenzo[d]thiazol-6-yl)amino)phenyl)-3-phenylpropanoic acid]",< 7.30
19,"CCC(CC(=O)O)c1cc(F)c(N(CC(C)C)CC(C)C)c(Nc2ccc(OCC(F)(F)F)cc2)c1 (single isomer, unassigned) [Example 98, 3-(4-(diisobutylamino)-3-fluoro-5-((4-(2,2,2-trifluoroethoxy)phenyl)amino)phenyl)pentanoic acid]",< 7.30

# Now from value to compound:
row,pIC50,Compound
1,> 8.30,"CCOc1ccc(NC(=O)Nc2cc(C(COC)CC(=O)O)ccc2N(CC(C)C)C2CCCCC2)c(F)c1 (single isomer, unassigned) [Example 1236, 3-(4-(Cyclohexyl(isobutyl)amino)-3-(3-(4-ethoxy-2-fluorophenyl)ureido)phenyl)-4-methoxybutanoic acid]"
2,> 7.30,"CCC(CC(=O)O)c1ccc(N2CCC[C@@H]2C(C)(C)O)c(Nc2ccc(C#N)cc2)c1 (single isomer, unassigned) [Example 782]"
3,> 8.30,"CCC(CC(=O)O)c1ccc(N(CC(C)C)C2CCCCC2)c(Nc2cnc(OC(C)C)nc2)c1 (single isomer, unassigned) [Example 648, 3-(4-(cyclohexyl(isobutyl)amino)-3-((2-isopropoxypyrimidin-5-yl)amino)phenyl)pentanoic acid]"
4,> 7.30,"CCC(CC(=O)O)c1ccc(N2C[C@@H](C)O[C@@H](C)C2)c(Nc2ccc(C#N)cc2)c1 (single isomer, unassigned) [Example 764]"
5,> 7.30,"CCCN(c1ccc([C@@H](COC)CC(=O)O)cc1Nc1cnc(OCC2CC2)nc1)C1CCOCC1 (single isomer, unassigned) [Example 563]"
6,< 7.30,"CCOc1ccc(Nc2cc(C(C)CC(=O)O)ccc2N(CC(C)(C)O)C2CCCCC2)c(F)c1 (single isomer, unassigned) [Example 52, 3-(4-(cyclohexyl(2-hydroxy-2-methylpropyl)amino)-3-((4-ethoxy-2-fluorophenyl)amino)phenyl)butanoic acid]"
7,> 8.30,"CC(C)CN(c1ccc(C(CC(=O)O)C2CC2)cc1NC(=O)Nc1ccc(Cl)cc1F)C1CCOCC1 (racemic) [Example 1198, (+/−)-3-(3-(3-(4-Chloro-2-fluorophenyl)ureido)-4-(isobutyl(tetrahydro-2H-pyran-4-yl)amino)phenyl)-3-cyclopropylpropanoic acid]"
8,> 7.30,"CCN(c1ccc(C(CC(=O)O)c2ccccc2)cc1NC(=O)Nc1ccc(Cl)cc1F)C1CCOCC1 (single isomer, unassigned) [Example 585, 3-(3-(3-(4-chloro-2-fluorophenyl)ureido)-4-(ethyl (tetrahydro-2H-pyran-4-yl)amino)phenyl)-3-phenylpropanoic acid]"
9,> 8.30,"CCOc1ncc(Nc2cc([C@H](CC)CC(=O)O)ccc2N(CC)C2CCOCC2)cn1 (single isomer, unassigned) [Example 498]"
10,> 8.30,"CC[C@@H](CC(=O)O)c1ccc(N(CC)C2CCCCC2)c(Nc2ccc(OC(F)F)cc2)c1 (single isomer, unassigned) [Example 284]"
